Experimental findings from article PMC7073229, “Novel Quinoline Compounds Active in Cancer Cells through Coupled DNA Methyltransferase Inhibition and Degradation” (Cancers, 2020) are described below.

For orientation: EC50 means the concentration giving half of the maximal effect. By IC50 is commonly meant the point on the concentration scale where inhibition reaches its midpoint. As usually defined, the melting point is the temperature, or range, at which the solid turns liquid.

Counter-ions that a name gives are not always drawn.

In data set [1] the target is T1, C-terminal catalytic domain of human DNMT3A (hDNMT3A) (Homo sapiens, UniProt Q9Y6K1).
T1 construct: the C-terminal catalytic domain of human DNMT3A (hDNMT3A)
Nature of the data set: DNMT3A restriction-based fluorescence assay. Type of data set: biochemical. The following applies: mean of at least two independent experiments; read-out: Enzyme Inhibition (EC50 ± SD) hDNMT3A. As for the experimental part: DNMT3A enzyme inhibition was adapted from the restriction-based fluorescence assay protocol described in Ceccaldi et al.. Briefly, a biotin-labelled oligonucleotide at the 5’ end is hybridized to his complementary strand labelled at the 3’ end with 6-carboxyfluorescein. The DNA duplex containing only one single CpG site overlapping with a restriction site of a methylation sensitive restriction enzyme is transferred in the wells coated with avidin. The methylation reaction is performed by adding human C-terminal DNMT3A at the final concentration of 4 ng/µL in a total volume of 50 µL in the presence of the inhibitors at various concentrations and the co-substrate SAM at the final concentration of 20 µM. The plate was incubated for 1 h at 37 °C, washed, and added with the methylation sensitive restriction enzyme HpyCH4IV, incubated for 1 h further at 37 °C, washed and the fluorescence measured with a PerkinElmer Envision Multilabel Plate Reader. The data are expressed as percentage of inhibition vs. log concentration (M). Data are normalized referring to the “restriction control” (wells coated with labelled duplex not treated nor exposed to DNMT3A, but only cleaved by HpyCH4IV) as the maximum of inhibition (100%) and to the “DMSO control” (wells coated with labelled duplex but treated just with 0.1% DMSO exposed to DNMT3A and then to HpyCH4IV) as the minimum of inhibition (0%; total methylation).

Another data set deals with HL60 APL cells. Briefly: Antiproliferative activity, MTT. The settings on record: Homo sapiens, HL-60, 48 h treatment, read-out: Antiproliferative Activity (IC50 ± SD) HL60. The format is cell-based. As for the experimental part:
(§1) U937 histiocytic lymphoma, HL60 acute promyelocytic leukemia, H1299 lung adenocarcinoma, MCF7 breast carcinoma, HT1080 fibrosarcoma, M14 melanoma, HeLa epithelial cervix carcinoma and peripheral blood B lymphocyte AHH1 human cell lines were obtained from the Deutsche Sammlung für Mikroorganismen and Zellkulturen (DSZM, Braunschweig, Germany) and were maintained in RPMI 1640 medium contained 10% fetal bovine serum (FBS), 2 mM L-glutamine, and antibiotics in a humidified atmosphere with 5% CO2 at 37 °C. HCT116 (ATCC, VA, USA) cells were propagated in Dulbecco’s modified Eagle medium (DMEM) (Euroclone, Milan, Italy) with 10% fetal bovine serum (FBS; Euroclone, Milan, Italy), 2 mM L-glutamine (Euroclone, Milan, Italy), and antibiotics (100 U/mL penicillin, 100 µg/mL streptomycin) (Euroclone, Milan, Italy). The experiments were performed with early (3–20) cell passages. Cell lines were treated with compounds at the indicated concentrations in the exponential growth phase.
(§2) Then, increasing concentrations of different compounds (ranging from 0.01 to 100 μM) were added, and cell proliferation was evaluated by a MTT assay after 48 h. Cells exposed to DMSO were used as control. The effect of compounds was evaluated using the CellTiter-Glo luminescent cell viability assay (Promega, Madison, WI, USA) according to the manufacturer’s instructions. For HCT116, 5 × 10^4 cells/well were plated in 24-well plate and treated, in duplicate, with compounds at several concentrations for 24 and 48 h of induction. After treatments, MTT solution was added for 3 h at 0.5 mg/mL, the obtained crystals were dissolved in DMSO (Sigma-Aldrich, Milan, Italy), and the absorbance was read at a wavelength of 570 nm with reader TECAN M-200. All the experiments were performed in triplicate and repeated at least three times.
(§3) IC50 values of compounds against cellular viability were determined by using nonlinear regression fitting curves with GraphPad Prism 8. The t-test used for statistical analyses was performed with GraphPad Prism 8. All the tests were one-tailed and a p-value < 0.05 was considered statistically significant.

The test system of a further data set is U937 AML cells. Nature of the data set: Antiproliferative activity, MTT. Type of data set: cell-based. The settings on record: Homo sapiens, U-937, 48 h treatment, read-out: Antiproliferative Activity (IC50 ± SD) U937. The method, then:
as §1, §2, §3

The test system of another data set is F21T G-quadruplex DNA. Nature of the data set: FRET melting assay, G-quadruplex DNA. Type of data set: binding. The method, then:
(§4) Experimental procedure for Fluorescence Resonance Energy Transfer (FRET) melting assay Oligonucleotides labeled at 5’ with FAM (6-carboxyfluorescein) as donor fluorophore and TAMRA (6 - carboxytetramethylrhodamine) at 3’ as the acceptor fluorophore were purchased from STAB VIDA (Portugal). Each oligonucleotide was initial ly diluted to 100 µM in water (Molecular Biology Reagent, Sigma). Stock solutions of 20 µM and subsequent dilutions were made with FRET buffer (60 mM KCl, potassium cacodylate, pH 7.4). Tagged oligonucleotides at 0.4 µM were annealed by heating at 90 -95 °C for 10 min, followed by slow cooling to room temperature. St ock solutions of compounds (1 mM) were prepared in 10% DMSO. Subsequent dilutions were performed using FRET buffer. Annealed DNA (50 µL) and test compound solutions (50 µL) were distributed across 96-well RT-PCR plates (PCR-96-FLT-C, Axygen, Inc). Fluorescence readings (performed in a 7300 RT -PCR equipment from Applied Biosystems) were taken at intervals of 0.5 °C in the range 31 –95 °C, with the temperature being maintained for 30 seconds prior to each reading. Experiments were performed in triplicate. Fina l analysis of the data was carried out with GraphPad Prism v.5.0 (GraphPad Software Inc., La Jolla, CA, USA).
(§5) The advanced curve-fitting function in GraphPad Prism (nonlinear regression fit) was used for calculation of ΔTm values. Only results with fitting r2 values > 0.75 (std error < 0.25) were considered.
(§6) Table S2. Synthetic oligonucleotides used in FRET experiments.

The subject of the next data set is KRAS21R G-quadruplex DNA. Nature of the data set: FRET melting assay, G-quadruplex DNA. Type of data set: binding. As for the experimental part: as §4, §5, §6
A further data set concerns U937 cells. Briefly: Sub-G1 peak, cell cycle flow cytometry. The format is cell-based, human. The settings on record: U937, 1 µM, 24 and 48 h. As for the experimental part:
Cell cycle analysis was performed on 5 × 10^5 fixed cells resuspended in a RNase A (3 mg/mL) and propidium iodide (PI) solution (1 mg/mL). Samples were analyzed with a C6 Accuri BD (Becton Dickinson & Co., San Jose, CA, USA). The percentage of apoptosis was measured analyzing sub-G1 peaks. Apoptotic cell death was also evaluated by using annexin V–fluorescein isothiocyanate (FITC) apoptosis kit (BD Bioscience) and assayed according to the manufacturer’s instructions. Cells double-stained for both annexin V and PI were analyzed by flow cytometry. PI was used in conjunction with annexin V–FITC to distinguish cells in the earlier stages of apoptosis (annexin V-FITC positive, PI negative) from those in later stages of apoptosis or that were already dead (annexin V–FITC positive, PI positive). Percentage of cells positive for caspase-3 activation was evaluated by Active Caspase-3 Apoptosis Kit (BD biosciences, Milan, Italy) according to the manufacturer’s instructions.
Background: Flow cytometry measures light scatter and fluorescence of single cells or particles in a stream.

For data set [2], the system named is H1299 human non-small cell lung carcinoma. Nature of the data set: Antiproliferative activity, MTT. Type of data set: cell-based. The settings on record: Homo sapiens, NCI-H1299, 48 h, 48 h treatment, read-out: Antiproliferative Activity (IC50 ± SD) H1299. As for the experimental part: as §1, §2, §3
Data set [3] concerns HCT116 human colorectal carcinoma. Briefly: Antiproliferative activity, MTT. The settings on record: HCT-116, 48 h treatment, read-out: Antiproliferative Activity (IC50 ± SD) HCT116. The format is cell-based. The method, then:
as §1, §2, §3

Data set [4] has as its system HT1080 human fibrosarcoma. Nature of the data set: Antiproliferative activity, MTT. The format is cell-based. The settings on record: HT-1080, 48 h treatment, read-out: Antiproliferative Activity (IC50 ± SD) HT1080. As for the experimental part:
as §1, §2, §3

The test system of data set [5] is HeLa epithelial cervix carcinoma. Nature of the data set: Antiproliferative activity, MTT. The format is cell-based. The following applies: Homo sapiens, 48 h treatment, read-out: Antiproliferative Activity (IC50 ± SD) HeLa. As for the experimental part:
as §1, §2, §3

In the next data set the test system is M14 human melanoma. Nature of the data set: Antiproliferative activity, MTT. Type of data set: cell-based. The following applies: 48 h treatment, read-out: Antiproliferative Activity (IC50 ± SD) M14. The method, then: as §1, §2, §3

T1 sequence (Q9Y6K1 634-912 limits assumed): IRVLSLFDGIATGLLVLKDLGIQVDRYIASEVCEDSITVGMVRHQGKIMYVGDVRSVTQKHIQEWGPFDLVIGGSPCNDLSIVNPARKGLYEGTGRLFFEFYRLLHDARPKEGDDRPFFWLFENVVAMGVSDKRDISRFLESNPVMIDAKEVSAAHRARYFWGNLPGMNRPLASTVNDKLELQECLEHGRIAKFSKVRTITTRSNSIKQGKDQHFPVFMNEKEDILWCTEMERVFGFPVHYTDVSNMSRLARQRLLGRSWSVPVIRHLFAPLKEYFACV

In turn, `Cc1cc(Nc2cccc(C(=O)Nc3cccc(Nc4ccnc5ccccc45)c3)c2)nc(N)n1` [Compound 1e] came in with a melting point of 227 to 229 °C. The EC50 in data set [1] was 21 ± 4 µM. Also, the IC50 with HL60 APL cells was determined as 9.9 ± 1.1 µM. For the same molecule, in the data set with U937 AML cells, the IC50 came to 4.8 ± 0.6 µM.
As to `C[n+]1ccc(-c2c3nc(c(-c4cc[n+](C)cc4)c4ccc([nH]4)c(-c4cc[n+](C)cc4)c4ccc([nH]4)c(-c4cc[n+](C)cc4)c4nc2C=C4)C=C3)cc1` [Py4P, reference compound], the “F21T ∆Tm” value in the data set on F21T G-quadruplex DNA (positive control at 1 µM) is 21.2 ºC. Moreover, the “KRAS ∆Tm” value with KRAS21R G-quadruplex DNA (positive control at 1 µM) is 18.8 ºC.
`Cc1cc(Nc2ccc(C(=O)Nc3cccc(Nc4cc(C)nc(N)n4)c3)cc2)nc(N)n1` [Compound 3c] came in with a melting point of 292 to 294 °C. Also, the EC50 in data set [1] amounted to 13 ± 0.9 µM. For the same molecule, the IC50 with HL60 APL cells stood at 125 ± 16.2 µM. Also, the IC50 in the data set with U937 AML cells came to 66 ± 9.2 µM.
Taken in the same sequence, the figures for `Cc1cc(Nc2cccc(NCc3cccc(Nc4ccnc5ccccc45)c3)c2)nc(N)n1` [Compound 1f] were 98 to 100 °C, 12 ± 3 µM, 1.9 ± 0.1 µM and 4.4 ± 0.7 µM.
Taken in the same sequence, the figures for `Cc1cc(Nc2cccc(NC(=O)c3cccc(Nc4cc(C)nc(N)n4)c3)c2)nc(N)n1` [Compound 3b] were 105 to 107 °C, greater than 100 µM, 225 ± 28.5 µM and 123 ± 15 µM.
Consider `O=C(Nc1cccc(NC(=O)c2cccc(Nc3ccnc4ccccc34)c2)c1)OCc1ccccc1` [Compound 4b], for which the EC50 in data set [1] worked out at 13 ± 1.4 µM. Besides, the “effect on sub-G1 peaks vs untreated cells” value in the data set on U937 cells is listed as “remarkable increase”. Besides, the IC50 in [2] stood at 40 ± 4.8 µM; in data set [3] it was 20.5 ± 2.8 µM; in the data set with HL60 APL cells, 1.9 ± 0.3 µM; in [4] it was 13.1 ± 1.5 µM; in data set [5], 65 ± 7.3 µM; in the data set with M14 human melanoma, 15.3 ± 2 µM. Further, the IC50 with U937 AML cells came out at 3.2 ± 0.6 µM. The results for the “F21T ∆Tm” value in the data set on F21T G-quadruplex DNA (5 µM) and with F21T G-quadruplex DNA (10 µM) were 3.8 ºC and 1.5 ºC, respectively. The “KRAS ∆Tm” value in the data set with KRAS21R G-quadruplex DNA (5 µM) was 2.8 ºC; with KRAS21R G-quadruplex DNA (10 µM), 2.5 ºC.
`Cc1cc(NCc2cccc(NC(=O)c3cccc(Nc4ccnc5ccccc45)c3)c2)nc(N)n1` [Compound 1d] displayed a melting point of 260 to 262 °C. For the same molecule, the EC50 in [1] stood at 51 ± 10 µM. The IC50 in the data set on HL60 APL cells was determined as 67 ± 7.4 µM. In the data set with U937 AML cells, the IC50 turned out to be 67 ± 8.8 µM.
`Cc1cc(Nc2cccc(CNC(=O)c3cccc(Nc4ccnc5ccccc45)c3)c2)nc(N)n1` (as salt: hydrochloride) [Compound 1c] came in with a melting point of 183 to 185 °C.
With `Cc1cc(Nc2ccc(NC(=O)c3cccc(Nc4cc(C)nc(N)n4)c3)cc2)nc(N)n1` [Compound 3a], the melting point was 218 to 220 °C. Also, the EC50 in data set [1] is 41 ± 10 µM. For the same molecule, the IC50 with HL60 APL cells was found to be 83 ± 10.2 µM. For the same molecule, the IC50 in the data set with U937 AML cells was 52.4 ± 7.6 µM.
For the molecule `Cc1cc(Nc2cccc(NC(=O)Cc3cccc(Nc4ccnc5ccccc45)c3)c2)nc(N)n1` [Compound 1b], the melting point lay within 163 to 165 °C. Moreover, the EC50 in [1] turned out to be 19 ± 2 µM. Moreover, in the data set on HL60 APL cells, the IC50 came out at 40 ± 5 µM. Also, the IC50 in the data set on U937 AML cells came out at 37 ± 5.9 µM.
Regarding `Cc1cc(Nc2cccc(NC(=O)c3cccc(CNc4ccnc5ccccc45)c3)c2)nc(N)n1` [Compound 1a], the melting point is 153 to 155 °C. Moreover, in data set [1], the EC50 came out at 21 ± 3.1 µM. For the same molecule, the IC50 in the data set on HL60 APL cells amounted to 18.1 ± 2.4 µM. Moreover, in the data set with U937 AML cells, the IC50 came to 1.4 ± 0.2 µM.
